According to patent US10179125B2, “Substituted pyridines as bromodomain inhibitors” (Zenith Epigenetics Ltd., priority 2014, dated 2019):

Legend:
[1] = target: T1, Brd4 bromodomain 1 (BRD4(1)) (Homo sapiens, UniProt O60885); test: Inhibition of tetra-acetylated histone H4 binding to BET bromodomain (HTRF/FRET); details: His-tagged bromodomain 200 nM, biotinylated tetra-acetylated histone H4 peptide, 2 h room temperature
T1 construct: made in house; host or cells: E. coli BL21(DE3)
Method in brief: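 His-tagged BRD4(1) (200 nM, E. coli-expressed) incubated with biotinylated tetra-acetylated histone H4 peptide (25-50 nM) plus Eu-cryptate streptavidin and XL665 anti-His, with compound (0.2% DMSO), 2 h at room temperature in HEPES pH 7.4 buffer. HTRF 665/620 nm ratio decrease gives IC50.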

cMYC = test: Inhibition of cMYC expression in MV4-11 cells (real-time PCR); assay type: cell-based, Human; details: Homo sapiens, 3 h, cMYC mRNA, read-out: c-myc activity
Method in brief: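 MV4-11 cells (2.5×10^4/well) treated 3 h at 37° C with compound in IMDM/10% FBS, 0.1% DMSO vehicle, in triplicate. cMYC mRNA quantified by one-step TaqMan RT-qPCR, Ct normalised to cyclophilin; fold expression relative to DMSO control.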

Human AML MV-4-11 cells = test: Inhibition of cell proliferation in MV4-11 cells (CellTiter Aqueous One); assay type: cell-based; details: Homo sapiens, 72 h
Method in brief: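 MV4-11 cells (5×10^4/well) in IMDM + 10% FBS were treated with graded compound or 0.1% DMSO for 72 h at 37 °C, 5% CO2, in triplicate. CellTiter Aqueous One was added for 3–4 h and absorbance read at 490 nm. Background-corrected signal was expressed relative to DMSO and used to calculate IC50.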

hIL-6 = test: Inhibition of hIL-6 mRNA transcription in LPS-stimulated U937 cells; assay type: cell-based, Human; details: Homo sapiens, U-937, PMA-differentiated U937 cells, 1 h pretreatment, LPS 3 h, read-out: IL-6 activity
Method in brief: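 U937 cells differentiated 3 days with 60 ng/mL PMA, pretreated 1 h with compound (0.1% DMSO), then stimulated with 1 ug/mL E. coli LPS for 3 h at 37 °C. IL-6 mRNA measured by one-step TaqMan qRT-PCR, normalized to cyclophilin; fold expression relative to control, triplicate wells.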

hIL-17 = test: Inhibition of hIL-17 mRNA transcription in OKT3-stimulated peripheral blood mononuclear cells; assay type: cell-based; details: human PBMC, OKT3 antibody 6 h, read-out: IL-17 activity
Experimental: Human peripheral blood mononuclear cells were plated (2.0×10^5 cells per well) in a 96-well plate in 45 μL OpTimizer T Cell expansion media (Life Technologies) containing 20 ng/ml IL-2 and penicillin/streptomycin. The cells were treated with increasing concentrations of the test compound or DMSO (0.1%), and incubated at 37° C., 5% CO2 for 1 h before addition of 10× stock OKT3 antibody at 10 ug/ml in media. Triplicate wells were used for each concentration, Cells were incubated at 37° C., 5% CO2 for 6 h before the cells were harvested. At time of harvest, cells were pelleted by centrifugation at 800 rpm for 5 min. Cells were harvested using the mRNA Catcher PLUS kit according to manufacturer's instructions. The eluted mRNA was then used in a one-step quantitative real-time PCR reaction, using components of the RNA UltraSense™ One-Step Kit (Life Technologies) together with Applied Biosystems TaqMan® primer-probes for hIL-17 and Cyclophilin. Real-time PCR plates were run on a ViiA™ 7 real time PCR machine (Applied Biosystems), data was analyzed, normalizing the Ct values for hIL-17 to an internal control, prior to determining the fold induction of each unknown sample, relative to the control.

hApoA-I = test: Up-regulation of hApoA-1 mRNA transcription in Huh7 cells; assay type: cell-based; details: EC170, Huh7 cells, 48 h
Experimental: In this example, hApoA-I mRNA in tissue culture cells was quantitated to measure the transcriptional up-regulation of hApoA-I when treated with a compound of the present disclosure.
Huh7 cells (2.5×10^5 per well) were plated in a 96-well plate using 100 μL DMEM per well, (Gibco DMEM supplemented with penicillin/streptomycin and 10% FBS), 72 h before the addition of the compound. The cells are treated with increasing concentrations of the compound or […] (0.1%), and incubated at 37° C., 5% CO2 for 48 h. Spent media was removed from the Huh-7 cells and placed on ice for immediate use with the “LDH cytotoxicity assay Kit II” from Abcam. The cells remaining in the plate were rinsed with 100 μL PBS. Cells were harvested using the mRNA Catcher PLUS kit according to manufacturer's instructions. The eluted mRNA was then used in a one-step quantitative real-time PCR reaction, using components of the RNA UltraSense™ One-Step Kit (Life Technologies) together with Applied Biosystems TaqMan® primer-probes for hApoA-I and Cyclophilin. Real-time PCR plates were run on a ViiA™7 real time PCR machine (Applied Biosystems), data was analyzed, normalizing the Ct values for hApoA-1 to an internal control, prior to determining the fold induction of each unknown sample, relative to the control.

| Structure (SMILES) | IC50 [1] | IC50 (cMYC) | IC50 (Human AML MV-4-11 cells) | IC50 (hIL-6) | IC50 (hIL-17) | ApoA-1 activity (hApoA-I) |
| --- | --- | --- | --- | --- | --- | --- |
| COc1ncc(-c2c(C)noc2C)cc1NCc1ccsc1 [Example 9, 5-(3,5-dimethylisoxazol-4-yl)-2-methoxy-N-(thiophen-3-ylmethyl)pyridin-3-amine] | ≤ 300 nM | 300 to 3000 nM | 300 to 3000 nM | ≤ 300 nM | 300 to 3000 nM | ++ (EC170 value between 0.3 and 3 μM were deemed to be very active (++)) |
| CNc1ncc(-c2c(C)noc2C)cc1NCc1ccccc1 [Example 45, N3-benzyl-5-(3,5-dimethylisoxazol-4-yl)-N2-methylpyridine-2,3-diamine] | ≤ 300 nM | 300 to 3000 nM | 300 to 3000 nM | ≤ 300 nM | 300 to 3000 nM |  |
| COc1ncc(-c2c(C)noc2C)cc1OCc1ccccc1 [Example 10, 4-(5-(benzyloxy)-6-methoxypyridin-3-yl)-3,5-dimethylisoxazole] | ≤ 300 nM | 300 to 3000 nM | 3000 to 30000 nM | 300 to 3000 nM | 3000 to 30000 nM |  |
| COc1ncc(-c2c(C)noc2C)cc1NCc1ccc(C#N)cc1 [Example 11, 4-(((5-(3,5-dimethylisoxazol-4-yl)-2-methoxypyridin-3-yl)amino)methyl)benzonitrile] | ≤ 300 nM | 300 to 3000 nM | 3000 to 30000 nM | 300 to 3000 nM | 300 to 3000 nM |  |
| COc1ncc(-c2c(C)noc2C)cc1Nc1cccnc1 [Example 1, 5-(3,5-dimethylisoxazol-4-yl)-2-methoxy-N-(pyridin-3-yl)pyridin-3-amine] | 300 to 3000 nM | 3000 to 30000 nM | 3000 to 30000 nM | 3000 to 30000 nM |  | ++ (EC170 value between 0.3 and 3 μM were deemed to be very active (++)) |
| COc1ncc(-c2c(C)noc2C)cc1NCc1ccccc1 [Example 2, N-benzyl-5-(3,5-dimethylisoxazol-4-yl)-2-methoxypyridin-3-amine] | ≤ 300 nM | 300 to 3000 nM | 300 to 3000 nM | 300 to 3000 nM | 300 to 3000 nM | ++ (EC170 value between 0.3 and 3 μM were deemed to be very active (++)) |
